Legend:
[1] = target: Tb-labeled inactive PDGFRβ (Homo sapiens (Human), UniProt P09619); assay: PDGFRβ LanthaScreen Assay; format: binding; details: read-out: PDGFR Lantha IC50
VEGFR2, unphosphorylated = VEGFR2, unphosphorylated (Homo sapiens (Human), UniProt P35968); assay: VEGFR ADP GLO Assay; format: biochemical
Chain of VEGFR2, unphosphorylated (P35968 20-1356): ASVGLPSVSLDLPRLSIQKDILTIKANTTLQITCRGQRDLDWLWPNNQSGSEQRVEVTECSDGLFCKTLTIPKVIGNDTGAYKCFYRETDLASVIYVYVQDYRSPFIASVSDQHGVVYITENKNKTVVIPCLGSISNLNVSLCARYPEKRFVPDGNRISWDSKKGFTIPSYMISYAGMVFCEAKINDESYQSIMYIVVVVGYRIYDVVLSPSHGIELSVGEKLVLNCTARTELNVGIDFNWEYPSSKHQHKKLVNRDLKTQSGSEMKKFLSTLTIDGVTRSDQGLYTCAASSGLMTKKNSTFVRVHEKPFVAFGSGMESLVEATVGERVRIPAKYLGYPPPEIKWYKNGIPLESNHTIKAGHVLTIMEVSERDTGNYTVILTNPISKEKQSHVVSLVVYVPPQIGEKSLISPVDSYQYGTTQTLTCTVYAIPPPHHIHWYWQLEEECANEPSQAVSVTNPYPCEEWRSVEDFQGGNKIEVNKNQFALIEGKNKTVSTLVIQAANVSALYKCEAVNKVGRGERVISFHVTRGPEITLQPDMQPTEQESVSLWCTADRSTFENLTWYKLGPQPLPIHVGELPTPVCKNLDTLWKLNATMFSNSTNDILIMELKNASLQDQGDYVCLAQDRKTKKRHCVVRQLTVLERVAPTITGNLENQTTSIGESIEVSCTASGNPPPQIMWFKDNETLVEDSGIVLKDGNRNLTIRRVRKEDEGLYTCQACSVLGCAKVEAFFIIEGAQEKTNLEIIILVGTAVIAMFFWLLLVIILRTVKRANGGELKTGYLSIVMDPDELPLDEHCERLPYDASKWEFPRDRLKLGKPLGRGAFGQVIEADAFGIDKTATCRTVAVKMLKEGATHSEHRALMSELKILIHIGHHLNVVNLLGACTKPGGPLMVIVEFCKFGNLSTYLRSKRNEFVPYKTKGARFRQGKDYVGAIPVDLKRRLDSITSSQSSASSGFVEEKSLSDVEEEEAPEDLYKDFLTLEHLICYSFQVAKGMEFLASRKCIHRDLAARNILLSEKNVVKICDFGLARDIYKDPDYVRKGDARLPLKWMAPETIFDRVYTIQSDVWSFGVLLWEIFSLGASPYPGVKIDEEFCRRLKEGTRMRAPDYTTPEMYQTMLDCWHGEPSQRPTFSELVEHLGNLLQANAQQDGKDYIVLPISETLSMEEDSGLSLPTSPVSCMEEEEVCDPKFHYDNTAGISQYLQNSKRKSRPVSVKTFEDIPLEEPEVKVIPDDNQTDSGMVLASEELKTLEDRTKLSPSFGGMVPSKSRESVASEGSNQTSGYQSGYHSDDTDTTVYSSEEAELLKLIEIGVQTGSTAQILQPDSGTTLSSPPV

Chain of Tb-labeled inactive PDGFRβ (P09619 33-1106): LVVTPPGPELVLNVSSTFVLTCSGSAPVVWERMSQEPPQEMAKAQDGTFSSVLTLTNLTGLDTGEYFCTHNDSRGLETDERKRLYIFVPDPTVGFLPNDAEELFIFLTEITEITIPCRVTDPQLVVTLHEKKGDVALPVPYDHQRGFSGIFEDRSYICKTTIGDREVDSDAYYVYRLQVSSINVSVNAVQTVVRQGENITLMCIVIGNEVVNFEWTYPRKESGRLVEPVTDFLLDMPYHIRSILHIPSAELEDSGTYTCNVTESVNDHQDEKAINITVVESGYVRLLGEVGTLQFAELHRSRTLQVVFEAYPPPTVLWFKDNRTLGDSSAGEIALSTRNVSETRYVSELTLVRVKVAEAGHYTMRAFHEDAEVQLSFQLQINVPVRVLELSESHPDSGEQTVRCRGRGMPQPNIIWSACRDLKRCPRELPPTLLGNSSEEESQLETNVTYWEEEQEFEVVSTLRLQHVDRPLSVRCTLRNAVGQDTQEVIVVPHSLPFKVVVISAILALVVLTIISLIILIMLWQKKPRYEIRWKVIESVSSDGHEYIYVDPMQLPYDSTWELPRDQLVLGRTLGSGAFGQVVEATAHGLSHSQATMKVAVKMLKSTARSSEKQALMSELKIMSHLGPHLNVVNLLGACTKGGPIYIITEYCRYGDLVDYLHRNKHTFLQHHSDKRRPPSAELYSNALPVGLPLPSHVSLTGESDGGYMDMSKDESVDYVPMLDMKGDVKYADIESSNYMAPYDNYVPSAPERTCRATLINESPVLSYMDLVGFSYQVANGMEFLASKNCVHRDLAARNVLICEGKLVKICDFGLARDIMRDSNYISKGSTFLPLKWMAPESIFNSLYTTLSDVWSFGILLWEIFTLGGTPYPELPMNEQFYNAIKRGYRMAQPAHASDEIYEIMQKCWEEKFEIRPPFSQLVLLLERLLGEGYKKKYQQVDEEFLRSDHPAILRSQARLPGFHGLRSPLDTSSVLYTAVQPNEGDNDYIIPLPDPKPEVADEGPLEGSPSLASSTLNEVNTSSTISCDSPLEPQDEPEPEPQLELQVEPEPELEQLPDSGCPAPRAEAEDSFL

Structure (SMILES) | IC50 [1] | IC50 (VEGFR2, unphosphorylated)
COCCn1cc(-c2cn3ncc(C(=O)Nc4cc(NC(=O)CN5CCC[C@@H]5C)cnc4C)c3s2)cn1 [Example 325, (S)-2-(1-(2-methoxyethyl)-1H-pyrazol-4-yl)-N-(2-methyl-5-(2-(2-methylpyrrolidin-1-yl)acetamido)pyridin-3-yl)pyrazolo[5,1-b]thiazole-7-carboxamide] | 16.3 nM | > 7500 nM
COc1ncccc1-c1cn2ncc(C(=O)Nc3cc(NC(=O)[C@@H]4C[C@H](C)CN4C)cnc3C)c2s1 [Example 317, N-(5-((2S,4S)-1,4-dimethylpyrrolidine-2-carboxamido)-2-methylpyridin-3-yl)-2-(2-methoxypyridin-3-yl)pyrazolo[5,1-b]thiazole-7-carboxamide] | 2.5 nM | > 7500 nM
Cc1ncc(NC(=O)OC[C@@H]2CCCN2C)cc1NC(=O)c1cnn2cc(-c3cccc4c3cnn4C)sc12 [Example 257, (S)-(1-methylpyrrolidin-2-yl)methyl (6-methyl-5-(2-(1-methyl-1H-indazol-4-yl)pyrazolo[5,1-b]thiazole-7-carboxamido)pyridin-3-yl)carbamate] | 2.6 nM | > 2500 nM
COCCn1cc(-c2cn3ncc(C(=O)Nc4cc(NC(=O)CN5CCC6(CC6)C5)cnc4C)c3s2)cn1 [Example 326, N-(5-(2-(5-azaspiro[2.4]heptan-5-yl)acetamido)-2-methylpyridin-3-yl)-2-(1-(2-methoxyethyl)-1H-pyrazol-4-yl)pyrazolo[5,1-b]thiazole-7-carboxamide] | 3.7 nM | > 7500 nM
COc1ncccc1-c1cn2ncc(C(=O)Nc3cc(NC(=O)CN4CCOC(C)(C)C4)cnc3C)c2s1 [Example 319, N-(5-(2-(2,2-dimethylmorpholino)acetamido)-2-methylpyridin-3-yl)-2-(2-methoxypyridin-3-yl)pyrazolo[5,1-b]thiazole-7-carboxamide] | 1.8 nM | > 7500 nM
COc1ncccc1-c1cn2ncc(C(=O)Nc3cc(NC(=O)CN4CCCC5(CC5)C4)cnc3C)c2s1 [Example 321, N-(5-(2-(5-azaspiro[2.5]octan-5-yl)acetamido)-2-methylpyridin-3-yl)-2-(2-methoxypyridin-3-yl)pyrazolo[5,1-b]thiazole-7-carboxamide] | 1 nM | > 7500 nM
Cc1ncc(NC(=O)CN2CC(C)(C)C2)cc1NC(=O)c1cnn2cc(-c3cnn(C4CCNCC4)c3)sc12 [Example 293, N-(5-(2-(3,3-dimethylazetidin-1-yl)acetamido)-2-methylpyridin-3-yl)-2-(1-(piperidin-4-yl)-1H-pyrazol-4-yl)pyrazolo[5,1-b]thiazole-7-carboxamide] | 4.6 nM | > 7500 nM
Cc1ncc(NC(=O)CC(C)N2CCCCC2)cc1NC(=O)c1cnn2cc(-c3cnn(C)c3)sc12 (centres unmarked) [Example 307, 2-(1-methyl-1H-pyrazol-4-yl)-N-(2-methyl-5-(3-(piperidin-1-yl)butanamido)pyridin-3-yl)pyrazolo[5,1-b]thiazole-7-carboxamide] | 210 nM | > 7500 nM
COc1ncccc1-c1cn2ncc(C(=O)Nc3cc(NC(=O)OCCN4CCCC4(C)C)cnc3C)c2s1 [Example 254, 2-(2,2-dimethylpyrrolidin-1-yl)ethyl (5-(2-(2-methoxypyridin-3-yl)pyrazolo[5,1-b]thiazole-7-carboxamido)-6-methylpyridin-3-yl)carbamate] | 2.6 nM | > 7500 nM
Cc1ncc(NC(=O)CN2CC(C)(C)C2)cc1NC(=O)c1cnn2cc(-c3cnn(C)c3)sc12 [Example 22, N-(5-(2-(3,3-dimethylazetidin-1-yl)acetamido)-2-methylpyridin-3-yl)-2-(1-methyl-1H-pyrazol-4-yl)pyrazolo[5,1-b]thiazole-7-carboxamide] | 8.6 nM | > 7500 nM
Cc1ncc(NC(=O)OC[C@@H]2CCCN2C)cc1NC(=O)c1cnn2cc(-c3cccnc3O)sc12 [Example 256, (S)-(1-methylpyrrolidin-2-yl)methyl (5-(2-(2-hydroxypyridin-3-yl)pyrazolo[5,1-b]thiazole-7-carboxamido)-6-methylpyridin-3-yl)carbamate] | 14.9 nM | > 7500 nM
Cc1ncc(NC(=O)CN2CC(C)(C)C2)cc1NC(=O)c1cnn2cc(-c3cnn(C4CCS(=O)(=O)CC4)c3)sc12 [Example 280, N-(5-(2-(3,3-dimethylazetidin-1-yl)acetamido)-2-methylpyridin-3-yl)-2-(1-(1,1-dioxidotetrahydro-2H-thiopyran-4-yl)-1H-pyrazol-4-yl)pyrazolo[5,1-b]thiazole-7-carboxamide] | 4.3 nM | > 7500 nM
Cc1ncc(NC(=O)CCN2CCCC2(C)C)cc1NC(=O)c1cnn2cc(-n3ncc4cccnc43)sc12 [Example 260, N-(5-(3-(2,2-dimethylpyrrolidin-1-yl)propanamido)-2-methylpyridin-3-yl)-2-(1H-pyrazolo[3,4-b]pyridin-1-yl)pyrazolo[5,1-b]thiazole-7-carboxamide] | 2.1 nM | > 7500 nM
Cc1ncc(NC(=O)CN2CC(C)(C)C2)cc1NC(=O)c1cnn2cc(-c3cnn(-c4cccnc4)c3)sc12 [Example 289, N-(5-(2-(3,3-dimethylazetidin-1-yl)acetamido)-2-methylpyridin-3-yl)-2-(1-(pyridin-3-yl)-1H-pyrazol-4-yl)pyrazolo[5,1-b]thiazole-7-carboxamide] | 7.1 nM | > 7500 nM
COc1ncccc1-c1cn2ncc(C(=O)Nc3cc(NC(=O)CN4CCC5(CC5)C4)cnc3C)c2s1 [Example 324, N-(5-(2-(5-azaspiro[2.4]heptan-5-yl)acetamido)-2-methylpyridin-3-yl)-2-(2-methoxypyridin-3-yl)pyrazolo[5,1-b]thiazole-7-carboxamide] | 0.7 nM | 5240 nM
COc1ncccc1-c1cn2ncc(C(=O)Nc3cc(NC(=O)C[C@@H]4CCCN4C(C)C)cnc3C)c2s1 [Example 323, (S)—N-(5-(2-(1-isopropylpyrrolidin-2-yl)acetamido)-2-methylpyridin-3-yl)-2-(2-methoxypyridin-3-yl)pyrazolo[5,1-b]thiazole-7-carboxamide] | 1.7 nM | > 7500 nM
Cc1ncc(NC(=O)CN(C)C2CCOCC2)cc1NC(=O)c1cnn2cc(-c3cnn(CC(N)=O)c3)sc12 [Example 300, 2-(1-(2-amino-2-oxoethyl)-1H-pyrazol-4-yl)-N-(2-methyl-5-(2-(methyl(tetrahydro-2H-pyran-4-yl)amino)acetamido)pyridin-3-yl)pyrazolo[5,1-b]thiazole-7-carboxamide] | 12.4 nM | > 7500 nM
Cc1ncc(NC(=O)CN2CCCC2(C)C)cc1NC(=O)c1cnn2cc(-n3ncc4cccnc43)sc12 [Example 259, N-(5-(2-(2,2-dimethylpyrrolidin-1-yl)acetamido)-2-methylpyridin-3-yl)-2-(1H-pyrazolo[3,4-b]pyridin-1-yl)pyrazolo[5,1-b]thiazole-7-carboxamide] | 2.8 nM | > 7500 nM
CNC(=O)Cn1cc(-c2cn3ncc(C(=O)Nc4cc(NC(=O)CN5CC(C)(C)C5)cnc4C)c3s2)cn1 [Example 279, N-(5-(2-(3,3-dimethylazetidin-1-yl)acetamido)-2-methylpyridin-3-yl)-2-(1-(2-(methylamino)-2-oxoethyl)-1H-pyrazol-4-yl)pyrazolo[5,1-b]thiazole-7-carboxamide] | 8.6 nM | > 7500 nM
